Assay results as given in patent publication EP1242012B1, “IMPROVED TRANSDERMAL CONTRACEPTIVE DELIVERY SYSTEM AND PROCESS” (priority 1999, dated 2001).

Columns and labels:
[1] = human, in vivo, topical or ocular
Text: The total duration of study for each subject participating in this study is 5 months. It consists of one base-line period followed by three treatment periods and one recovery period. Each period is one menstrual cycle of the person subjects.
Subjects attending this 5 month-long study were randomly divided and sequentially admitted into three study groups. Group A, B and C subjects received one piece of 7.5 cm^2, 10.0 cm^2 and 12.5 cm^2 TCDS patch weekly, respectively, for three consecutive weeks I each of the three treatment periods. During the baseline and recovery periods, all the subjects received only the placebo patch of the corresponding size for three consecutive weeks. During the fourth week of each study period, no patch was worn by the subjects in any treatment groups.
According to the blood sampling schedule, a total of 57 blood samples (about 10 ml per sample) were taken from each subject during the 5-month study. During the three treatment cycles, 15 samples were taken through out the 21 days of patch wearing period. At the end of the third treatment cycle, 5 additional blood samples were taken during the 24 hours post patch removal which allows the elimination pharmacokinetics of drugs to be studied. […]
Serum level of levonorgestrel (LNG), ethinyl estradiol (EE) as well as luteinizing hormone (LH), progesterone (P) and estradiol (E2) were analyzed by radio-immunassay methods.

[2] = human, in vivo, topical or ocular; cited from earlier work

Row | levels achieved by the TCDS formulation of the present invention [1] | Compound | levels achieved by the system described in the '956 patent [2]
1 | 0.035 to 0.075 ng/mL | C#C[C@]1(O)CC[C@H]2[C@@H]3CCc4cc(O)ccc4[C@H]3CC[C@@]21C [ethinyl estradiol] | 
2 |  | C#C[C@]1(O)CC[C@H]2[C@@H]3CCC4=CC(=O)CC[C@@H]4[C@H]3CC[C@@]21CC [levonorgestrel] | 0.4 ng/mL
